Measured values reported in ChEMBL document CHEMBL3992526, “Antagonizing NOD2 Signaling with Conjugates of Paclitaxel and Muramyl Dipeptide Derivatives Sensitizes Paclitaxel Therapy and Significantly Prevents Tumor Metastasis” (J Med Chem, 2017).
pIC50: −log10 of the molar value.

target: T1, Nucleotide-binding oligomerization domain-containing protein 2 (Homo sapiens, UniProt Q9HC29); assay: Inhibition of MDP-induced human NOD2 signaling expressed in HEK-Blue cells preincubated for 3 hrs followed by MDP-stimulation for 20 hrs by spectrophotometry based SEAP reporter gene assay; type: cell-based
T1 sequence (Q9HC29 whole entry, the tested form may be a part): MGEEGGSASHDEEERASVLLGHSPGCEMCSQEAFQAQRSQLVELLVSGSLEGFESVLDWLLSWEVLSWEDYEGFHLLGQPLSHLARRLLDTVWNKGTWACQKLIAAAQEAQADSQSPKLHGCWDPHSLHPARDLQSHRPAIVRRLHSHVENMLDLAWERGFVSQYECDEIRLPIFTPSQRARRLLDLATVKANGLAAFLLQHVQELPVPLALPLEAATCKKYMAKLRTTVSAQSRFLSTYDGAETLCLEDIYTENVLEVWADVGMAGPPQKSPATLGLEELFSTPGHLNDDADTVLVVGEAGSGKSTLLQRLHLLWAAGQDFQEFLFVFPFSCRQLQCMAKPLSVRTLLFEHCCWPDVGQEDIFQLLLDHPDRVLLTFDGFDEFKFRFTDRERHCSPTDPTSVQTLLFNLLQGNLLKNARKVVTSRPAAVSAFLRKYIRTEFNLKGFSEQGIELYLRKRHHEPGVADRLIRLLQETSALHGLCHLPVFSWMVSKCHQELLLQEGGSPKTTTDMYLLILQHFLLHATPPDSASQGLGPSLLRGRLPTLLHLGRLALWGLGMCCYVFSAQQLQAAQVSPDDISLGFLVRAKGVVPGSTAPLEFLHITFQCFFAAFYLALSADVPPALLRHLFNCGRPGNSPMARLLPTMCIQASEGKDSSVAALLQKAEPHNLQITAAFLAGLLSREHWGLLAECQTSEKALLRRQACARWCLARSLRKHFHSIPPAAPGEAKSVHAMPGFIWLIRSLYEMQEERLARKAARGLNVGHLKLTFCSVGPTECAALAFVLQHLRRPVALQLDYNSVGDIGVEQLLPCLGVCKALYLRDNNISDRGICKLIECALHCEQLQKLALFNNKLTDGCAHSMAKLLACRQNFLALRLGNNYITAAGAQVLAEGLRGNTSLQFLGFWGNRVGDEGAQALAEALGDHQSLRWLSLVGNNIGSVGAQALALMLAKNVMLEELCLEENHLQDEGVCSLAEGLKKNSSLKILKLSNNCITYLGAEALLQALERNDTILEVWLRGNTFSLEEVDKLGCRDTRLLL

`CC(=O)O[C@@]12CO[C@@H]1C[C@H](O)[C@@]1(C)C(=O)[C@H](O)C3=C(C)[C@@H](OC(=O)[C@H](O)[C@@H](NC(=O)OC(C)(C)C)c4ccccc4)C[C@@](O)([C@@H](OC(=O)c4ccccc4)[C@H]21)C3(C)C` [DOCETAXEL ANHYDROUS] was tested. Which pIC50 did it give?
Its pIC50 is 5.30.

target: T1, Nucleotide-binding oligomerization domain-containing protein 2; assay: Inhibition of MDP-induced human NOD2 signaling expressed in HEK-Blue cells at 10 uM preincubated for 3 hrs followed by MDP-stimulation for 20 hrs by spectrophotometry based SEAP reporter gene assay relative to control; type: cell-based

Which inhibition does the source give for `CC(=O)O[C@H]1C(=O)[C@@]2(C)[C@H]([C@H](OC(=O)c3ccccc3)[C@]3(O)C[C@H](OC(=O)[C@H](OCCC(=O)NCCCC[C@H](NC(=O)CC[C@@H](NC(=O)[C@H](C)NC(=O)/C=C/c4ccc(Br)cc4)C(N)=O)C(=O)O)[C@@H](NC(=O)c4ccccc4)c4ccccc4)C(C)=C1C3(C)C)[C@]1(OC(C)=O)CO[C@@H]1C[C@@H]2O` here?
Its inhibition is 44%.

`CC(=O)O[C@H]1C(=O)[C@@]2(C)[C@H]([C@H](OC(=O)c3ccccc3)[C@]3(O)C[C@H](OC(=O)[C@H](OCCC(=O)NCCCC[C@H](NC(=O)CC[C@@H](NC(=O)[C@H](C)NC(=O)/C=C/c4ccc(Cl)cc4F)C(N)=O)C(=O)O)[C@@H](NC(=O)c4ccccc4)c4ccccc4)C(C)=C1C3(C)C)[C@]1(OC(C)=O)CO[C@@H]1C[C@@H]2O` was tested. Which inhibition did it give?
The inhibition was 45%.

For `CC(=O)O[C@@]12CO[C@@H]1C[C@H](O)[C@@]1(C)C(=O)[C@H](O)C3=C(C)[C@@H](OC(=O)[C@H](OCCC(=O)NCCCC[C@H](NC(=O)CC[C@@H](NC(=O)[C@H](C)NC(=O)c4ccccc4)C(N)=O)C(=O)O)[C@@H](NC(=O)C(C)(C)C)c4ccccc4)C[C@@](O)([C@@H](OC(=O)c4ccccc4)[C@H]21)C3(C)C`, which inhibition is on record?
The inhibition was 20%.

How did the inhibition turn out when `COC(=O)[C@H](OCCC(=O)NCCCC[C@H](NC(=O)CC[C@@H](NC(=O)[C@H](C)NC(=O)/C=C/c1ccc(Cl)cc1F)C(N)=O)C(N)=O)[C@@H](NC(=O)c1ccccc1)c1ccccc1` was run?
Its inhibition is -7%.

With `CC(=O)O[C@@]12CO[C@@H]1C[C@H](O)[C@@]1(C)C(=O)[C@H](O)C3=C(C)[C@@H](OC(=O)[C@H](OCCC(=O)NCCCC[C@H](NC(=O)CC[C@@H](NC(=O)[C@H](C)NC(=O)/C=C/c4cccs4)C(N)=O)C(=O)O)[C@@H](NC(=O)C(C)(C)C)c4ccccc4)C[C@@](O)([C@@H](OC(=O)c4ccccc4)[C@H]21)C3(C)C` as the molecule, how does the inhibition read?
Its inhibition is 26%.

For `CCCCOC(=O)[C@H](OCCC(=O)NCCCC[C@H](NC(=O)CC[C@@H](NC(=O)[C@H](C)NC(=O)/C=C/c1ccc(Cl)cc1F)C(N)=O)C(N)=O)[C@@H](NC(=O)c1ccccc1)c1ccccc1`, which inhibition is on record?
Its inhibition is -6%.

With `CC(=O)O[C@@]12CO[C@@H]1C[C@H](O)[C@@]1(C)C(=O)[C@H](O)C3=C(C)[C@@H](OC(=O)[C@H](OCCC(=O)NCCCC[C@H](NC(=O)CC[C@@H](NC(=O)[C@H](C)NC(=O)/C=C/c4ccc(F)c(F)c4)C(N)=O)C(=O)O)[C@@H](NC(=O)C(C)(C)C)c4ccccc4)C[C@@](O)([C@@H](OC(=O)c4ccccc4)[C@H]21)C3(C)C` as the molecule, how does the inhibition read?
Its inhibition is 24%.

How did the inhibition turn out when `CC(=O)O[C@H]1C(=O)[C@@]2(C)[C@H]([C@H](OC(=O)c3ccccc3)[C@]3(O)C[C@H](OC(=O)[C@H](OCCC(=O)NCCCC[C@H](NC(=O)CC[C@@H](NC(=O)[C@H](C)NC(=O)/C=C/c4ccc(F)cc4)C(N)=O)C(=O)O)[C@@H](NC(=O)c4ccccc4)c4ccccc4)C(C)=C1C3(C)C)[C@]1(OC(C)=O)CO[C@@H]1C[C@@H]2O` was run?
Its inhibition is 27%.

For `COc1cccc(/C=C/C(=O)N[C@@H](C)C(=O)N[C@H](CCC(=O)N[C@@H](CCCCNC(=O)CCO[C@@H](C(=O)O[C@H]2C[C@@]3(O)[C@@H](OC(=O)c4ccccc4)[C@@H]4[C@]5(OC(C)=O)CO[C@@H]5C[C@H](O)[C@@]4(C)C(=O)[C@H](OC(C)=O)C(=C2C)C3(C)C)[C@@H](NC(=O)c2ccccc2)c2ccccc2)C(=O)O)C(N)=O)c1`, which inhibition is on record?
Its inhibition is 45%.

`CC(=O)O[C@@]12CO[C@@H]1C[C@H](O)[C@@]1(C)C(=O)[C@H](O)C3=C(C)[C@@H](OC(=O)[C@H](OCCC(=O)NCCCC[C@H](NC(=O)CC[C@@H](NC(=O)[C@H](C)NC(=O)/C=C/c4ccc(F)cc4Cl)C(N)=O)C(N)=O)[C@@H](NC(=O)C(C)(C)C)c4ccccc4)C[C@@](O)([C@@H](OC(=O)c4ccccc4)[C@H]21)C3(C)C` was tested. Which inhibition did it give?
Its inhibition is 58%.

For `CC(=O)O[C@H]1C(=O)[C@@]2(C)[C@H]([C@H](OC(=O)c3ccccc3)[C@]3(O)C[C@H](OC(=O)[C@H](OCCC(=O)NCCCC[C@H](NC(=O)CC[C@@H](NC(=O)[C@H](C)NC(=O)/C=C/c4ccc(Cl)cc4)C(N)=O)C(=O)O)[C@@H](NC(=O)c4ccccc4)c4ccccc4)C(C)=C1C3(C)C)[C@]1(OC(C)=O)CO[C@@H]1C[C@@H]2O`, which inhibition is on record?
Its inhibition is 44%.

For `CC(=O)O[C@H]1C(=O)[C@@]2(C)[C@H]([C@H](OC(=O)c3ccccc3)[C@]3(O)C[C@H](OC(=O)[C@H](OCCC(=O)NCCCC[C@H](NC(=O)CC[C@@H](NC(=O)[C@H](C)NC(=O)/C=C/c4ccc(F)c(F)c4)C(N)=O)C(=O)O)[C@@H](NC(=O)c4ccccc4)c4ccccc4)C(C)=C1C3(C)C)[C@]1(OC(C)=O)CO[C@@H]1C[C@@H]2O`, which inhibition is on record?
The inhibition was 29%.

Which inhibition does the source give for `CC(=O)O[C@@]12CO[C@@H]1C[C@H](O)[C@@]1(C)C(=O)[C@H](O)C3=C(C)[C@@H](OC(=O)[C@H](OCCC(=O)NCCCC[C@H](NC(=O)CC[C@@H](NC(=O)[C@H](C)NC(=O)COc4cccc5ccccc45)C(N)=O)C(=O)O)[C@@H](NC(=O)C(C)(C)C)c4ccccc4)C[C@@](O)([C@@H](OC(=O)c4ccccc4)[C@H]21)C3(C)C` here?
Its inhibition is 34%.

Which inhibition does the source give for `CC(=O)O[C@@]12CO[C@@H]1C[C@H](O)[C@@]1(C)C(=O)[C@H](O)C3=C(C)[C@@H](OC(=O)[C@H](OCCC(=O)NCCCC[C@H](NC(=O)CC[C@@H](NC(=O)[C@H](C)NC(=O)c4ccc(Cl)cc4)C(N)=O)C(=O)O)[C@@H](NC(=O)C(C)(C)C)c4ccccc4)C[C@@](O)([C@@H](OC(=O)c4ccccc4)[C@H]21)C3(C)C` here?
Its inhibition is 14%.

With `CC(=O)O[C@H]1C(=O)[C@@]2(C)[C@H]([C@H](OC(=O)c3ccccc3)[C@]3(O)C[C@H](OCCC(=O)NCCCC[C@H](NC(=O)CC[C@@H](NC(=O)[C@H](C)NC(=O)/C=C/c4ccc(Cl)cc4F)C(N)=O)C(N)=O)C(C)=C1C3(C)C)[C@]1(OC(C)=O)CO[C@@H]1C[C@@H]2O` as the molecule, how does the inhibition read?
The inhibition was 6%.

For `CC(=O)O[C@@]12CO[C@@H]1C[C@H](O)[C@@]1(C)C(=O)[C@H](OCCC(=O)NCCCC[C@H](NC(=O)CC[C@@H](NC(=O)[C@H](C)NC(=O)/C=C/c3ccc(Cl)cc3F)C(N)=O)C(N)=O)C3=C(C)[C@@H](O)C[C@@](O)([C@@H](OC(=O)c4ccccc4)[C@H]21)C3(C)C`, which inhibition is on record?
The inhibition was 22%.

With `CC(=O)O[C@@]12CO[C@@H]1C[C@H](O)[C@@]1(C)C(=O)[C@H](O)C3=C(C)[C@@H](OC(=O)[C@H](OCCC(=O)NCCCC[C@H](NC(=O)CC[C@@H](NC(=O)[C@H](C)NC(=O)c4ccc5ccccc5n4)C(N)=O)C(=O)O)[C@@H](NC(=O)C(C)(C)C)c4ccccc4)C[C@@](O)([C@@H](OC(=O)c4ccccc4)[C@H]21)C3(C)C` as the molecule, how does the inhibition read?
The inhibition was 28%.

How did the inhibition turn out when `CC(=O)O[C@@]12CO[C@@H]1C[C@H](O)[C@@]1(C)C(=O)[C@H](O)C3=C(C)[C@@H](OC(=O)[C@H](OCCC(=O)NCCCC[C@H](NC(=O)CC[C@@H](NC(=O)[C@H](C)NC(=O)/C=C/c4ccc(F)cc4)C(N)=O)C(=O)O)[C@@H](NC(=O)C(C)(C)C)c4ccccc4)C[C@@](O)([C@@H](OC(=O)c4ccccc4)[C@H]21)C3(C)C` was run?
The inhibition was 19%.

With `CC(=O)O[C@@]12CO[C@@H]1C[C@H](O)[C@@]1(C)C(=O)[C@H](O)C3=C(C)[C@@H](OC(=O)[C@H](OCCC(=O)NCCCC[C@H](NC(=O)CC[C@@H](NC(=O)[C@H](C)NC(=O)/C=C/c4cccc(F)c4)C(N)=O)C(=O)O)[C@@H](NC(=O)C(C)(C)C)c4ccccc4)C[C@@](O)([C@@H](OC(=O)c4ccccc4)[C@H]21)C3(C)C` as the molecule, how does the inhibition read?
Its inhibition is 30%.

`CC(=O)O[C@H]1C(=O)[C@@]2(C)[C@H]([C@H](OC(=O)c3ccccc3)[C@]3(O)C[C@H](OC(=O)[C@H](OCCC(=O)NCCCC[C@H](NC(=O)CC[C@@H](NC(=O)[C@H](C)NC(=O)/C=C/c4ccc(C)cc4)C(N)=O)C(=O)O)[C@@H](NC(=O)c4ccccc4)c4ccccc4)C(C)=C1C3(C)C)[C@]1(OC(C)=O)CO[C@@H]1C[C@@H]2O` was tested. Which inhibition did it give?
Its inhibition is 41%.

With `CC(=O)O[C@@]12CO[C@@H]1C[C@H](O)[C@@]1(C)C(=O)[C@H](O)C3=C(C)[C@@H](OC(=O)[C@H](OCCC(=O)NCCCC[C@H](NC(=O)CC[C@@H](NC(=O)[C@H](C)NC(=O)/C=C/c4ccc(C)cc4)C(N)=O)C(=O)O)[C@@H](NC(=O)C(C)(C)C)c4ccccc4)C[C@@](O)([C@@H](OC(=O)c4ccccc4)[C@H]21)C3(C)C` as the molecule, how does the inhibition read?
Its inhibition is 25%.

`CC(=O)O[C@H]1C(=O)[C@]2(C)[C@@H](OCCC(=O)NCCCC[C@H](NC(=O)CC[C@@H](NC(=O)[C@H](C)NC(=O)/C=C/c3ccc(Cl)cc3F)C(N)=O)C(N)=O)C[C@H]3OC[C@@]3(OC(C)=O)[C@H]2[C@H](OC(=O)c2ccccc2)[C@]2(O)C[C@H](O)C(C)=C1C2(C)C` was tested. Which inhibition did it give?
The inhibition was 9%.

For `CC(=O)O[C@@]12CO[C@@H]1C[C@H](O)[C@@]1(C)C(=O)[C@H](O)C3=C(C)[C@@H](OC(=O)[C@H](OCCC(=O)NCCCC[C@H](NC(=O)CC[C@@H](NC(=O)[C@H](C)NC(=O)/C=C/c4ccc(O)cc4)C(N)=O)C(=O)O)[C@@H](NC(=O)C(C)(C)C)c4ccccc4)C[C@@](O)([C@@H](OC(=O)c4ccccc4)[C@H]21)C3(C)C`, which inhibition is on record?
Its inhibition is 23%.

`CC(=O)O[C@H]1C(=O)[C@@]2(C)[C@H]([C@H](OC(=O)c3ccccc3)[C@]3(O)C[C@H](OC(=O)[C@H](OCCC(=O)NCCCC[C@H](NC(=O)CC[C@@H](NC(=O)[C@H](C)NC(=O)/C=C/c4ccc(F)cc4F)C(N)=O)C(=O)O)[C@@H](NC(=O)c4ccccc4)c4ccccc4)C(C)=C1C3(C)C)[C@]1(OC(C)=O)CO[C@@H]1C[C@@H]2O` was tested. Which inhibition did it give?
The inhibition was 21%.

For `CC(=O)O[C@@]12CO[C@@H]1C[C@H](O)[C@@]1(C)C(=O)[C@H](O)C3=C(C)[C@@H](OC(=O)[C@H](OCCC(=O)NCCCC[C@H](NC(=O)CC[C@@H](NC(=O)[C@H](C)NC(=O)/C=C/c4ccc(Cl)cc4F)C(N)=O)C(=O)O)[C@@H](NC(=O)C(C)(C)C)c4ccccc4)C[C@@](O)([C@@H](OC(=O)c4ccccc4)[C@H]21)C3(C)C`, which inhibition is on record?
Its inhibition is 32%.

With `CC(=O)O[C@@]12CO[C@@H]1C[C@H](O)[C@@]1(C)C(=O)[C@H](O)C3=C(C)[C@@H](OC(=O)[C@H](OCCC(=O)NCCCC[C@H](NC(=O)CC[C@@H](NC(=O)[C@H](C)NC(=O)/C=C/c4ccc(F)cc4F)C(N)=O)C(=O)O)[C@@H](NC(=O)C(C)(C)C)c4ccccc4)C[C@@](O)([C@@H](OC(=O)c4ccccc4)[C@H]21)C3(C)C` as the molecule, how does the inhibition read?
Its inhibition is 28%.
